Experiments:
lipoamide = compound: NC(=O)CCCCC1CCSS1 [lipoamide]; experiment: thermal stability z-score vs DMSO; higher = more thermally stabilized by treatment; conditions: HeLa, lipoamide concentration 100 µM
Experimental: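 Cellular thermal proteome profiling in HeLa cells. Cells were treated with 100 µM lipoamide for 1 h, with or without 1 mM arsenate for a further 1 h, then heated to ten temperatures (37-66.3 °C), and soluble protein was quantified by TMT mass spectrometry relative to 0.1% DMSO controls. The thermal stability score (sum of log2 fold changes minus the abundance score) was transformed to a z-score; mean of n = 3 experiments.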

potassium arsenate = compound: O=[As]([O-])(O)O.[K+] [potassium arsenate]; experiment: as above; conditions: HeLa; arsenate concentration 1 mM
Experimental: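 Cellular thermal proteome profiling in HeLa cells treated with 1 mM arsenate for 1 h (DMSO pretreatment), heated to ten temperatures (37-66.3 °C). Soluble protein was quantified by TMT mass spectrometry relative to DMSO controls; the thermal stability score was transformed to a z-score; mean of n = 3 experiments.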

[1] = arsenate co-treatment: 1 mM arsenate 1 h
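Note: each temperature applied for 3 min, abundance score taken as mean log2 fold change at the two lowest temperatures, z-score obtained by mean subtraction and division by SD.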

UniProt Q14573, sequence (Q14573 whole entry): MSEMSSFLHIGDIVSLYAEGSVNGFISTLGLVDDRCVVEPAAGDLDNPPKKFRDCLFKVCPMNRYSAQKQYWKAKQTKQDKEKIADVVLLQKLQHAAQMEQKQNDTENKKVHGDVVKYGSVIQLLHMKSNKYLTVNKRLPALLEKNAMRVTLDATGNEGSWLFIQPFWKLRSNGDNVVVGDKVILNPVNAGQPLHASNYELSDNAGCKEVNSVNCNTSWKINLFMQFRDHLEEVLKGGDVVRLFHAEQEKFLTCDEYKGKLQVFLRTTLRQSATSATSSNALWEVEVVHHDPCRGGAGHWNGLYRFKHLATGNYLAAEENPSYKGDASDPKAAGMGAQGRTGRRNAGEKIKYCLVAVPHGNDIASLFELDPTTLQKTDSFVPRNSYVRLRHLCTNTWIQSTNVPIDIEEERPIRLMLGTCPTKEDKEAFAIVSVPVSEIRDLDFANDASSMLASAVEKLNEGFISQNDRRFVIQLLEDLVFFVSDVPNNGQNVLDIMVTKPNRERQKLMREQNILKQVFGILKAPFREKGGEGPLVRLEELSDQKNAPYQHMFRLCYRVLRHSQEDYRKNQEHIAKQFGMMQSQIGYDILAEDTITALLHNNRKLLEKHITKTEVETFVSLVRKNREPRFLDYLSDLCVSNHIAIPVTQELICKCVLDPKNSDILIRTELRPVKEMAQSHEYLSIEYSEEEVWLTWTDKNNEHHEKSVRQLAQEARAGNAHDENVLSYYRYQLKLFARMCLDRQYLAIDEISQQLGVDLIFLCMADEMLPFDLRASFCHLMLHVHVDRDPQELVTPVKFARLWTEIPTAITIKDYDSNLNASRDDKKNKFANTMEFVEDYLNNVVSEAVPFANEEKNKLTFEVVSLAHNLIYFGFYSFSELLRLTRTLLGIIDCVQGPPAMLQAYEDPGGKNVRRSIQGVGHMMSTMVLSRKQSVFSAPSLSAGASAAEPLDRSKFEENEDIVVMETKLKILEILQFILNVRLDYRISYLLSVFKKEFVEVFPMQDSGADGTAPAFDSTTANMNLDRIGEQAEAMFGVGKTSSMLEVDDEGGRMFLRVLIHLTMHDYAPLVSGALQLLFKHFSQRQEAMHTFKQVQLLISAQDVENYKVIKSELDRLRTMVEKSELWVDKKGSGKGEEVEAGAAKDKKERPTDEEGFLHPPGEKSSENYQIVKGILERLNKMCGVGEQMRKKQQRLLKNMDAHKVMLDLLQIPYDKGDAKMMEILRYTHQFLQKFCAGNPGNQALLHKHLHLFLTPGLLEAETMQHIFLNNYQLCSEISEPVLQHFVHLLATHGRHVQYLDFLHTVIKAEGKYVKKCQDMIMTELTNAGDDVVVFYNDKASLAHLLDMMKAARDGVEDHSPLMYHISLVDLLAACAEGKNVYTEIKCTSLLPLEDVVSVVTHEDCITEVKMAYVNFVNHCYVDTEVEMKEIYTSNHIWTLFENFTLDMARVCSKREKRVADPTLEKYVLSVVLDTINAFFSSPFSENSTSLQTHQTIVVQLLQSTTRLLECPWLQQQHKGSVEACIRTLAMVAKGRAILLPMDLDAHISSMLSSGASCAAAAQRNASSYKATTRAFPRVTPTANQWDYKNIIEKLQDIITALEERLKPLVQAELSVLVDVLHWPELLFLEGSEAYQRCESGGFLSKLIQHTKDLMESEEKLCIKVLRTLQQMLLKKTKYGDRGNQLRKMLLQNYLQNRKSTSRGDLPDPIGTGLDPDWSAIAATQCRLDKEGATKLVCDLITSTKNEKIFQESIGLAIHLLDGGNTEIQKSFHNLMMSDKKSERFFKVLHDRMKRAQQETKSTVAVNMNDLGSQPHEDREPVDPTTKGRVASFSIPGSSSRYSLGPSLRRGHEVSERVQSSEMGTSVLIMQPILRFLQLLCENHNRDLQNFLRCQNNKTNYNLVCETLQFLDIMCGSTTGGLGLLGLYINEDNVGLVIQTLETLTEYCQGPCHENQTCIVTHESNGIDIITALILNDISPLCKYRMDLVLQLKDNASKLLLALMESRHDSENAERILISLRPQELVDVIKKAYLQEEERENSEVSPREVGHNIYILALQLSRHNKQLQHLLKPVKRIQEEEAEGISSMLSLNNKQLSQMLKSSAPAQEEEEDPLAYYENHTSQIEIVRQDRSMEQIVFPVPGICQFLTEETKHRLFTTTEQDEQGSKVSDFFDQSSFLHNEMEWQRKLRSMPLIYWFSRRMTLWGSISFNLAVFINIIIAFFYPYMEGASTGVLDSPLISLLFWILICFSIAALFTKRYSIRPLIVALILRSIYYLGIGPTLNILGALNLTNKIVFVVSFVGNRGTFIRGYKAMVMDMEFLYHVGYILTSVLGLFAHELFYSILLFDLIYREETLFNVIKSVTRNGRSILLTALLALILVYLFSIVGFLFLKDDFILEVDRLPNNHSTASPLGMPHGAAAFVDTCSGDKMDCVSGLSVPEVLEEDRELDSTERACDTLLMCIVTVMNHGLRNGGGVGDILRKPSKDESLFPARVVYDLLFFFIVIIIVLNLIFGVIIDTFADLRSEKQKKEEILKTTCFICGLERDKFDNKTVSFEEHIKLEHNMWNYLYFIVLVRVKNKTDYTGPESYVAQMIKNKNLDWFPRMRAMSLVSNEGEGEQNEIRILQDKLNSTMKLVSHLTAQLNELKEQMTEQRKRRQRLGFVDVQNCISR
UniProt Q969R8, sequence (Q969R8 whole entry): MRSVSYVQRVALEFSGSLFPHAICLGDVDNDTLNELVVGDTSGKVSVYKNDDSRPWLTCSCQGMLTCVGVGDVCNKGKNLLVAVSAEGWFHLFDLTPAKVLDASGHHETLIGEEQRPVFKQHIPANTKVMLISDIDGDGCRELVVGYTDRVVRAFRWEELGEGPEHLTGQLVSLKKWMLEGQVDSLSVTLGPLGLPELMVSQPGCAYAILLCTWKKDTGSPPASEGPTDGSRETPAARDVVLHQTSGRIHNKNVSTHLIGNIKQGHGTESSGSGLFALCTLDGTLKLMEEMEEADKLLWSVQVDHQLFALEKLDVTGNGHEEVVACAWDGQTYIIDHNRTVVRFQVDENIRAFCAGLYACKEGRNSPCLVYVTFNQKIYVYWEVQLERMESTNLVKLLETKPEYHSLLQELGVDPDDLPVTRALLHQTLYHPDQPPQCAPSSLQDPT
UniProt Q9H1K1, sequence (Q9H1K1 whole entry): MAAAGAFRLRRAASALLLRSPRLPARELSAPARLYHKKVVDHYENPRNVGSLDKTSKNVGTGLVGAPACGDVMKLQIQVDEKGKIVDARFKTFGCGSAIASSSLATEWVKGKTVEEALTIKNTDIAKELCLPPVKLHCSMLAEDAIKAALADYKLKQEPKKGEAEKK
UniProt Q9Y287, sequence (Q9Y287 whole entry, looked up): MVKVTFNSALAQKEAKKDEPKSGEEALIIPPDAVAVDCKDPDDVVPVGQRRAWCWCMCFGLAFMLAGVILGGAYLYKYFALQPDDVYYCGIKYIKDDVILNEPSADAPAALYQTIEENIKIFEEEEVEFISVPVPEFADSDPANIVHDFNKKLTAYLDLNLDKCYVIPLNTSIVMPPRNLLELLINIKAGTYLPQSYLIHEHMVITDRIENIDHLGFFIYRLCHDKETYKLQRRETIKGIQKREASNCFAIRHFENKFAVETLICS
UniProt Q96CN7, sequence (Q96CN7 whole entry): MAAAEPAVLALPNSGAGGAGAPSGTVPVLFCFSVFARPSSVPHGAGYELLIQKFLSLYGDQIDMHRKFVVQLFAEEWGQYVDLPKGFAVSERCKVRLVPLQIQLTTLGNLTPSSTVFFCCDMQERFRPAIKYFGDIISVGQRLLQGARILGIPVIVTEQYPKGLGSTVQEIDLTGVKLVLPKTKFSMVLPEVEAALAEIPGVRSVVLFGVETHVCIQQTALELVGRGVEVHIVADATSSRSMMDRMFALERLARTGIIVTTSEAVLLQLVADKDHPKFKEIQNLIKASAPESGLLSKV
UniProt P08648, sequence (P08648 whole entry): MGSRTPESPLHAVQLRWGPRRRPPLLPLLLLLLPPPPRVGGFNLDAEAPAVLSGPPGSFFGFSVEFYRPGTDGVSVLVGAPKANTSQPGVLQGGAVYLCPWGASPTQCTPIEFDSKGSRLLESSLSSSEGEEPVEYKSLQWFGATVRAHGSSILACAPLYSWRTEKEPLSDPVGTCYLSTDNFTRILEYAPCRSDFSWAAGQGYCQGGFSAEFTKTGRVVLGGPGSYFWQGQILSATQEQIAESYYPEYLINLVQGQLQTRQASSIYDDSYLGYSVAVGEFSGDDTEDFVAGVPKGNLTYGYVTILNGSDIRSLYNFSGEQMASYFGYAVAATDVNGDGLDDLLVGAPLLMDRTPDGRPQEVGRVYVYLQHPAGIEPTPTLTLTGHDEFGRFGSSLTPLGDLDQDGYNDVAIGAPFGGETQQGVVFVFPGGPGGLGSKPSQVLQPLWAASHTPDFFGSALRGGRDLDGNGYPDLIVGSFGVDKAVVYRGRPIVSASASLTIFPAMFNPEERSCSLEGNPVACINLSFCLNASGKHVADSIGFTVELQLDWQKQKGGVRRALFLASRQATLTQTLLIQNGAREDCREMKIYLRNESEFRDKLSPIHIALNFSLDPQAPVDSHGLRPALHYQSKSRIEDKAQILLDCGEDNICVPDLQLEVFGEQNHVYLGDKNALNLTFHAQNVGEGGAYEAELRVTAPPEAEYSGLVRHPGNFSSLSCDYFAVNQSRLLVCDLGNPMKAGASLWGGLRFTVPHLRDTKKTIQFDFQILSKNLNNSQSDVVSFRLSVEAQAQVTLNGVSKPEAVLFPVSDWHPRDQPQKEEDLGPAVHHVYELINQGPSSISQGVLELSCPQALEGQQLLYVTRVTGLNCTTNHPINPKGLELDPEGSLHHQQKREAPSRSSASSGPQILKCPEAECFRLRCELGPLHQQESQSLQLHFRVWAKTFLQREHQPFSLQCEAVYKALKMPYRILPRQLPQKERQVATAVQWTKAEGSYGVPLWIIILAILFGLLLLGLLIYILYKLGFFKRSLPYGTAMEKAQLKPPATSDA
UniProt Q9BUE6, sequence (Q9BUE6 whole entry): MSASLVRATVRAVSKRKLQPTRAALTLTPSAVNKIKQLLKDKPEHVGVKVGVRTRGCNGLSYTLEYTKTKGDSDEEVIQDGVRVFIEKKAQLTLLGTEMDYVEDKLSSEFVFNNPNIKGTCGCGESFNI

Row | Target | thermal stability z-score (lipoamide; [1]) | thermal stability z-score (lipoamide; arsenate co-treatment: none) | thermal stability z-score (potassium arsenate)
1 | IRF2BP2 (UniProt Q7Z5L9) | 0.371 | -0.0192 | -2.51
2 | IRF2BPL (UniProt Q9H1B7) | 0.0789 | 0.157 | -0.124
3 | IRF3 (UniProt Q14653) | 0.883 | -0.106 | 1.13
4 | IRGQ (UniProt Q8WZA9) | -0.249 | -0.257 | -0.24
5 | IRS2 (UniProt Q9Y4H2) | -0.525 | -0.112 | -1.42
6 | ISCA1 (UniProt Q9BUE6) | -0.00815 | 0.577 | 0.178
7 | ISCU (UniProt Q9H1K1) | 0.628 | 0.0375 | -1.15
8 | ISG15 (UniProt P05161) | 0.471 | 0.327 | 0.355
9 | ISG20 (UniProt Q96AZ6) | 0.189 | 0.668 | 0.863
10 | ISG20L2 (UniProt Q9H9L3) | -0.0445 | -0.0231 | -0.367
11 | ISOC1 (UniProt Q96CN7) | 1.2 | 1.14 | 8.79
12 | IST1 (UniProt P53990) | 0.453 | 0.367 | 0.351
13 | ISY1 (UniProt Q9ULR0) | 0.997 | 0.693 | -0.872
14 | ITCH (UniProt Q96J02) | -0.451 | -0.173 | -0.386
15 | ITFG1 (UniProt Q8TB96) | -0.794 | -0.597 | 0.61
16 | ITFG2 (UniProt Q969R8) | 1.01 | 0.534 | -0.266
17 | ITGA1 (UniProt P56199) | 0.216 | 0.171 | -0.126
18 | ITGA2 (UniProt P17301) | 0.217 | 0.235 | 0.278
19 | ITGA3 (UniProt P26006) | 0.122 | 0.207 | 0.402
20 | ITGA5 (UniProt P08648) | 0.408 | 0.203 | 0.211
21 | ITGA6 (UniProt P23229) | -0.0761 | 0.174 | 0.156
22 | ITGAV (UniProt P06756) | -0.283 | -0.316 | -0.323
23 | ITGB1 (UniProt P05556) | -0.614 | -0.431 | 0.139
24 | ITGB5 (UniProt P18084) | -1.1 | -0.661 | 0.289
25 | ITM2B (UniProt Q9Y287) | 0.215 | -0.0896 | -0.251
26 | ITPA (UniProt Q9BY32) | 0.939 | 0.734 | 0.199
27 | ITPK1 (UniProt Q13572) | -0.0201 | 0.179 | -0.31
28 | ITPR1 (UniProt Q14643) | -0.434 | -0.461 | -0.46
29 | ITPR2 (UniProt Q14571) | -0.269 | -0.265 | -0.238
30 | ITPR3 (UniProt Q14573) | -1.24 | -0.526 | -0.418
